Test results from US6410792B1, “Amide derivatives and methods for using the same as selective neuropeptide Y receptor antagonists” (Bayer Corporation, priority 1997, dated 2002).
Counter-ions that a name gives are not always drawn.

How the values were obtained:
human Y4/PP1 receptor = human Y4/PP1 receptor (Homo sapiens, UniProt P50391); assay: Human Y4/PP1 receptor binding assay ([125I]human PP, membrane protein); details: [125I]human PP, membrane protein; read-out: hNPY4 IC50
Method in brief: (§1)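 Filtration binding with membrane protein and drug dilution, 2 h at room temperature with mixing, radioactivity counted by gamma or scintillation. Y2: 25 pM [125I]PYY in Krebs-Ringer bicarbonate pH 7.4 with 0.01% BSA, nonspecific by 1 μM NPY. Y4/PP1: 50 pM [125I]hPP in HEPES-buffered saline pH 7.4 with protease inhibitors and 0.3% BSA, nonspecific by 1 μM hPP.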

Human NPY5 receptor = molecular target: T1, Human NPY5 receptor (Homo sapiens, UniProt Q15761); assay: Human NPY5 receptor binding assay ([125I]PYY, membrane protein); details: [125I]PYY, read-out: hNPY5 IC50
T1 sequence (Q15761 1-445): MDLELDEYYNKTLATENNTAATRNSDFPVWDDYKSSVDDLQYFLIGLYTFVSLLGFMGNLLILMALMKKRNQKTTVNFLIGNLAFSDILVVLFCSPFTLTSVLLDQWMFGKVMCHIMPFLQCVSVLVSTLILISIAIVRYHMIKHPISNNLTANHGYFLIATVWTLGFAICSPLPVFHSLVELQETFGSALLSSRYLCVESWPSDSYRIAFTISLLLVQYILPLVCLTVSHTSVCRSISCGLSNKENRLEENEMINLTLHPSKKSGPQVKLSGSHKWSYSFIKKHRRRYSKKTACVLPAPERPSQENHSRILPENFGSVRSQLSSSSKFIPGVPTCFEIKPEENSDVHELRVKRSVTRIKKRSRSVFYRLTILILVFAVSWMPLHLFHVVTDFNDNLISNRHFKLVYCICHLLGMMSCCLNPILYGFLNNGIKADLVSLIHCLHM
Method in brief: (§2)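 Bound [125I]PYY is measured by gamma counting or liquid scintillation after vacuum filtration and ice-cold washes. Before that, membranes, 75-100 pM tracer and compound are incubated 2 hours at room temperature, with nonspecific binding defined by 1 μM PYY.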

Rat NPY5 receptor [1] = molecular target: T2, Rat NPY5 receptor (Rattus norvegicus, UniProt Q63634); assay: Rat NPY5 receptor binding assay ([125I]PYY, membrane protein); details: [125I]PYY, read-out: rNPY5 IC50
T2 sequence (Q63634 1-445): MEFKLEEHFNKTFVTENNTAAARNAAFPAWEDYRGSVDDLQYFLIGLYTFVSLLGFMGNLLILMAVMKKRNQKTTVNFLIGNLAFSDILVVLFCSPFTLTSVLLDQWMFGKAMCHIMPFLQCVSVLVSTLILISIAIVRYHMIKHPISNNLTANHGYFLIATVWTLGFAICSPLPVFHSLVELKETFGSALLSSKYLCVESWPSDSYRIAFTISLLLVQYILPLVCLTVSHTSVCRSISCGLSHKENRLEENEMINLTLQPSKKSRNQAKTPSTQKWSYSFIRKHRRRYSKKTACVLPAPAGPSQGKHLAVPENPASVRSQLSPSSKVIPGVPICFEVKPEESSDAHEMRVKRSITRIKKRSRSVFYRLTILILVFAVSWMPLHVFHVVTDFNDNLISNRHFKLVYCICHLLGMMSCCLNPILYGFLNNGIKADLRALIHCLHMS
Method in brief: as §2

Y2 receptor = molecular target: T3, Y2 receptor (Homo sapiens, UniProt P49146); assay: Y2 receptor binding assay ([125I]PYY, membrane protein); details: [125I]PYY, membrane protein; read-out: hNPY2 IC50
T3 sequence (P49146 1-381): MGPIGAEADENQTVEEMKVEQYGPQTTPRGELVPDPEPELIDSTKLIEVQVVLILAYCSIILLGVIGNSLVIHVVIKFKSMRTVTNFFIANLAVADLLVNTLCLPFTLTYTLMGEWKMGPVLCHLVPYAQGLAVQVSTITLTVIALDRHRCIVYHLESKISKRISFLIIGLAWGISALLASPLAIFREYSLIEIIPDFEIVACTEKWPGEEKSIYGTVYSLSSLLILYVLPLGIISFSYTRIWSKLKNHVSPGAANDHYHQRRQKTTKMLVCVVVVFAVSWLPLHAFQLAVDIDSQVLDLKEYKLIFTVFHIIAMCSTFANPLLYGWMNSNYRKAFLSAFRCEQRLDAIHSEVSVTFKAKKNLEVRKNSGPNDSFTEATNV
Method in brief: as §1

Human NPY1 receptor = molecular target: T4, Human NPY1 receptor (Homo sapiens, UniProt P25929); assay: Human NPY1 receptor binding assay ([125I]PYY, SK-N-MC cells); details: [125I]PYY, SK-N-MC cells; read-out: hNPYI IC50
T4 construct: host or cells: SK-N-MC cells
T4 sequence (P25929 1-384): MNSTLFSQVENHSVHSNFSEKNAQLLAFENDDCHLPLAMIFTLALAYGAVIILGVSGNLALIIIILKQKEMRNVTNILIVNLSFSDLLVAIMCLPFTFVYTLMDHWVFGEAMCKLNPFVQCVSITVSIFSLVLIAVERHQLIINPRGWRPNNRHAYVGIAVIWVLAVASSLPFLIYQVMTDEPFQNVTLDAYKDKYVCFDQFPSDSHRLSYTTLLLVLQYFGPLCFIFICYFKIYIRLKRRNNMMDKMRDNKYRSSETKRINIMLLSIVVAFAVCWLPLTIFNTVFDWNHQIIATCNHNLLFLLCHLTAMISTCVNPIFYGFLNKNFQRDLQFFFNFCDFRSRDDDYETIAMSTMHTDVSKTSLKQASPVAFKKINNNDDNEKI
Method in brief: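 Confluent SK-N-MC cells preincubated 30 min at room temperature in serum-free DMEM/25 mM HEPES pH 7.3 with BSA, bacitracin and PMSF, then incubated 3 h at room temperature with compound and ~50 pM [125I]PYY. Nonspecific binding defined with 1 μM NPY; bound radioactivity counted after Triton X-100 lysis.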

Rat NPY5 receptor [2] = molecular target: T2, Rat NPY5 receptor; assay: Rat NPY5 cyclase assay (in vitro functional assay, forskolin-stimulated adenylate cyclase, cAMP); format: cell-based; details: 10 μM, percentage of forskolin-stimulated adenylate cyclase; for activity at 10 µM: 20 min, read-out: rNPY5 % FSAC (10 μM)
Experimental: D. Rat NYP5 Cyclase Assay (In Vitro Functional Assay)
Cells stably expressing the rat NPY5 receptor are resuspended in serum-free DMEM containing 10 mM HEPES (pH 7.4) and 1 mM isobutylmethylxanthine (IBMX). […] forskolin and drug dilution are then added to the cells. After a 20 minute incubation of the samples at 37° C, the assay is stopped by placing the samples in boiling water for 3 minutes. The cAMP produced in each sample is quantitated with a radioimmunoassay kit (NEN DuPont). Data are expressed as a percentage of forskolin-stimulated adenylate cyclase.

human Y4/PP1 receptor, sequence (P50391 whole entry): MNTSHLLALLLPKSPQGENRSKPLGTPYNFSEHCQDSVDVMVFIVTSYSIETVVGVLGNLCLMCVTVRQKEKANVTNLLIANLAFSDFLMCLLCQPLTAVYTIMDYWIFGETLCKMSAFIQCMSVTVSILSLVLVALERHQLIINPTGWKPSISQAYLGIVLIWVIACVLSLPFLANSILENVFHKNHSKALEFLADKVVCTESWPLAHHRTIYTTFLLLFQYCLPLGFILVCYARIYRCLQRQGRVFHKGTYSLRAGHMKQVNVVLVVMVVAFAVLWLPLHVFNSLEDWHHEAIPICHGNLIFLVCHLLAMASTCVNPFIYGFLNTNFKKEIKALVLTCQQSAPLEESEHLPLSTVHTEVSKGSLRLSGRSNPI

| IC50 (human Y4/PP1 receptor) [nM] | IC50 (Human NPY5 receptor) [nM] | IC50 (Rat NPY5 receptor [1]) [nM] | IC50 (Y2 receptor) [nM] | IC50 (Human NPY1 receptor) [nM] | activity at 10 µM (Rat NPY5 receptor [2]) [%] | SMILES | rNPY5 % FSAC (10 μM) (Rat NPY5 receptor [2]) [%] |
| --- | --- | --- | --- | --- | --- | --- | --- |
| > 5000 | 130 | 100 | > 5000 | > 5000 | 110 | O=C(CN1CCC(O)(Cc2ccccc2)CC1)Nc1ccc(C2CCCCC2)cc1 [Compound 314, 2-(4-Benzyl-4-hydroxy-piperidin-1-yl)-N-(4-cyclohexyl-phenyl)-acetamide; hydrochloride] |  |
| > 5000 | 440 | 260 | > 5000 | > 5000 | 99 | CCc1cc(Br)c(NC(=O)CN2CCC(n3c(=O)[nH]c4ccccc43)CC2)c(Br)c1 [Compound 330, N-(2,6-Dibromo-4-ethyl-phenyl)-2-[4-(2-oxo-2,3-dihydrobenzoimidazol-1-yl)-piperidin-1-yl]-acetamide, reference compound] |  |
| > 5000 | 276 | 370 | > 5000 | > 5000 | 105 | O=C(CN1CCC(n2c(=O)[nH]c3ccccc32)CC1)Nc1ccc(Br)c(Cl)c1 [Compound 342, N-(4-Bromo-3-chloro-phenyl)-2-[4-(2-oxo-2,3-dihydro-benzoimidazol-1-yl)-piperidin-1-yl]-acetamide, reference compound] |  |
| > 5000 | 2900 | 3300 | > 5000 | > 5000 | 93 | O=C(CN1CCC(n2c(=O)[nH]c3ccccc32)CC1)Nc1ccc(O)cc1 [Compound 345, N-(4-Hydroxy-phenyl)-2-[4-(2-oxo-2,3-dihydro-benzoimidazol-1-yl)-piperidin-1-yl]-acetamide, reference compound] |  |
| > 5000 | 81 | 63 | > 5000 | > 5000 | 105 | CCOc1ccc(NC(=O)CN2CCC(n3c(=O)[nH]c4ccccc43)CC2)c2ccccc12 [Compound 346, N-(4-Ethoxy-naphthalen-1-yl)-2-[4-(2-oxo-2,3-dihydro-benzoimidazol-1-yl)-piperidin-1-yl]-acetamide, reference compound] |  |
| > 5000 | 138 | 165 | > 5000 | > 5000 | 100 | O=C(CN1CCC(n2c(=O)[nH]c3ccccc32)CC1)Nc1ccc(N=Nc2ccccc2)cc1 [Compound 349, 2-[4-(2-Oxo-2,3-dihydro-benzoimidazol-1-yl)-piperidin-1-yl]-N-(4-phenylazo-phenyl)-acetamide, reference compound] |  |

| SMILES | IC50 (human Y4/PP1 receptor) [nM] | IC50 (Human NPY5 receptor) [nM] | IC50 (Rat NPY5 receptor [1]) [nM] | IC50 (Y2 receptor) [nM] | IC50 (Human NPY1 receptor) [nM] | activity at 10 µM (Rat NPY5 receptor [2]) [%] | rNPY5 % FSAC (10 μM) (Rat NPY5 receptor [2]) [%] |
| --- | --- | --- | --- | --- | --- | --- | --- |
| O=C(CN1CCN(c2ccccc2Cl)CC1)Nc1ccc(C2CCCCC2)cc1.O=C(O)C(=O)O [Compound 299] | > 5000 | 140 | 160 | > 5000 | > 5000 |  | 103 |
